# In paper PMC10541198, “Specific quinone reductase 2 inhibitors reduce metabolic burden and reverse Alzheimer’s disease phenotype in mice” (The Journal of Clinical Investigation, 2023):
# “And” between values parts separate entries of the source, which are not always exact repeats. Equal entries are not always repeated.
# Key:
# Type in all cases: cell-based
# THLE-2 cells = assay: ATP depletion cell toxicity assay (CellTiter Glo), 72 h; settings: for cell viability, Cell-Titer-Glo (replicates): THLE2, 72 hour, in % (unit assumed)
# Protocol: (§1) H2DCFDA ROS assay was carried out according to established protocols, with some adjustment (Supplemental Methods) ([6]). Cell toxicity was measured via ATP depletion (CellTiter Glo, Promega) in THLE-2 cells (ATCC, CRL-2706), following 72 hours of exposure to the test compounds, and cell viability was assessed using XTT assay (Biological Industries) according to manufacturers protocols. CETSA was performed as previously described ([53]) with some modifications, using QR2 (Santa Cruz, sc-271665) and SOD1 (Santa Cruz, sc-17767) antibodies. SDS-PAGE and immunoblot imaging were carried out as previously described ([55]), using Tubulin (Sigma-Aldrich, SAB4500087), QR2 (Santa Cruz, sc-271665), NDUFA9 (AbCam, ab14713) and CD73 (Cell Signaling Technology, D7F9A) antibodies.
# with a 100 µM as upper limit, for 72 h. […]
# (§2) Cellular The rm a l Shift Assay (CETSA) […]
# (§3) 17767). Analysis of the results wer e done in accordance to Jafari et a l .( 63) us i ng GraphPad Pr i sm software.
# QR2 expressed in HEK293T = target: T1, QR2 expressed in HEK293T (Homo sapiens, UniProt P16083); assay: Cellular thermal shift assay (CETSA; Tagg curves and ITDRF); settings: 73°C; for QR2 stabilization signal, ITDRF (replicates): log[Inhibitor]
# T1 construct: endogenous in cells; host or cells: HEK293T
# T1 sequence (P16083 1-231): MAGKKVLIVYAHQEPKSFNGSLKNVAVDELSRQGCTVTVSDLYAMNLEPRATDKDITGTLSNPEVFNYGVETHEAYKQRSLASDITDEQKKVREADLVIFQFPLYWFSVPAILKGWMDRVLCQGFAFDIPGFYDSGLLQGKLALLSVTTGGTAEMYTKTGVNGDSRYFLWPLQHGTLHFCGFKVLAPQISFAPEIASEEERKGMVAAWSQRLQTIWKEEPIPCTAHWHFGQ
# Protocol: (§4) To establish direct target engagement and cell membrane permeability, a cellular thermal shift assay (CETSA) was carried out, using leading QR2is YB’s-537, 800, and 808. Following a 1 hour preincubation with 5 μM of the QR2is or vehicle, thermal aggregation curves (Taggs) of QR2 expressed in HEK293T were measured in increasing temperatures. All QR2is increased QR2 thermal stability compared with vehicle (Supplemental Figure 2A). Based on the Tagg curves we selected 73°C for isothermal dose-response fingerprint (IDTRF) experiments (Supplemental Figure 2B). The ITDRF allowed the relative quantification of the binding of each of the QR2is to QR2, measured as the EC50 (Figure 3A). […] We evaluated the safety of the QR2is using cell toxicity and viability assays. […] Cell viability was assessed by XTT assay in HEK239T cells, using a dose response, with 3- or 24-hour incubations of the leading QR2is. No sign of toxicity was seen (Figure 3C). Next, we wanted to assess if, similar to QR2 KO, QR2is can reduce cellular ROS in HCT116 cells and see whether any observable effect is occluded in QR2Δ cells. […] We then assessed WT HCT116 cells by immunoblot (Supplemental Figure 2, C and D), after being treated with YB-800 (2 μM) for 4 consecutive days.
# as §1, with “D7F9A) antibodies. […]” for “D7F9A) antibodies.”
# (§5) HEK293FT cells were cultured with penicillin- streptomycin antibiotics in Invitrogen DMEM (Thermo
# (§6) Fisher Scientific) with 10% fetal bovine serum a nd L -glutamine, and grown to 80-90% confluence in 100
# mm plates, while being passaged every 2–3 d. […]
# Cellular The rm a l Shift Assay (CETSA)
# The CETSA assay was performed as described(54) with some modifications. Bri efl y, HEK293T cel ls wer e
# trypsinized (Biological Indust ri es), washed in PBS (Sigma-Aldrich) and then suspended in PBS containing
# protease inhibitor cocktail (Roche). The suspended cells were then divided into two Eppendorf tubes and
# were treated with either compound or DMSO (Sigma-Aldrich) for 1h at 37 °C with shaking. Following
# treatment, each sample was divided into PCR tubes (100µL/tube) and subjected to a temperature gradient
# (ranging fr om 63 to 80 °C) for 3 minutes. Cell lysates we r e obtained by 3- cycles of freeze- t ha w using li qui d
# nitrogen and a thermal bl ock set to 25 °C. Samples were then centrifuged at 15,000rpm at 4 °C f or 20min a nd
# were subsequently analyzed by Western Blot of QR2 (1:100, Santa Cruz; sc-271665). The isothermal
# concentration response fingerprint (ITDRF) experiments were done using a constant temperature of 73 °C.
# Band intensities were normalized to the highest concentration and SOD1 levels (1:200, Santa Cruz; sc -
# as §3
# HEK293 cells = assay: XTT cell viability assay; settings: in % (unit assumed)
# Protocol: as §4
# as §1, with “D7F9A) antibodies. […]” for “D7F9A) antibodies.”
# as §5, §6
# mm plates, while being passaged every 2–3 d. For the XTT assay (Biological Industries), cells were then
# collected, centrifuged, and resuspended in fresh Minimum Essential Medium, and seeded at 50,000
# cells/well in 96-well, poly- L-lysine-coated Nunc black, clear flat-bottomed plates (Thermo Fisher
# Scientific). The next day, the cells were treated with increasing doses of QR2 inhibitors or vehicle f or 3 h,
# and the XTT assay was then carried out as per the manufacturer’s instructions.
# as §2, §3
smiles,measurement,setting,value
Cc1ccc(-c2cn3cccc(C)c3n2)cc1S(=O)(=O)N1CCCC1 [YB-808],"cell viability, Cell-Titer-Glo (replicates)",THLE-2 cells; inhibitor 3.9e-7 M,96.4 and 99.1
same,"cell viability, Cell-Titer-Glo (replicates)",THLE-2 cells; inhibitor 7.8e-7 M,91.2 and 88.9
same,"cell viability, Cell-Titer-Glo (replicates)",THLE-2 cells; inhibitor 1.5625e-6 M,98.0 and 97.5
same,"cell viability, Cell-Titer-Glo (replicates)",THLE-2 cells; inhibitor 3.125e-6 M,92.2 and 93.9
same,"cell viability, Cell-Titer-Glo (replicates)",THLE-2 cells; inhibitor 6.25e-6 M,94.7 and 93.5
same,"cell viability, Cell-Titer-Glo (replicates)",THLE-2 cells; inhibitor 1.25e-5 M,90.2 and 79.5
same,"cell viability, Cell-Titer-Glo (replicates)",THLE-2 cells; inhibitor 2.5e-5 M,79.2 and 86.7
same,"cell viability, Cell-Titer-Glo (replicates)",THLE-2 cells; inhibitor 5e-5 M,66.4 and 67.9
same,"cell viability, Cell-Titer-Glo (replicates)",THLE-2 cells; inhibitor 0.0001 M,22.2 and 20.2
same,"LD50, cell viability (Cell-Titer-Glo)","THLE-2 cells; THLE2 cells, 72 hour incubation",59.704 µM
same,EC50,"QR2 expressed in HEK293T; n = 3, read-out: EC50, isothermal dose-response of QR2 stabilization",13 nM
same,"QR2 stabilization signal, ITDRF (replicates)",QR2 expressed in HEK293T; M -5,11691 and 8388 and 13855
same,"QR2 stabilization signal, ITDRF (replicates)",QR2 expressed in HEK293T; M -5.6,12608 and 8899 and 18621
same,"QR2 stabilization signal, ITDRF (replicates)",QR2 expressed in HEK293T; M -5.9,7977 and 16388
same,"QR2 stabilization signal, ITDRF (replicates)",QR2 expressed in HEK293T; M -6.2,13431 and 8528 and 16152
same,"QR2 stabilization signal, ITDRF (replicates)",QR2 expressed in HEK293T; M -6.5,13807 and 8233 and 15986
same,"QR2 stabilization signal, ITDRF (replicates)",QR2 expressed in HEK293T; M -6.8,13304 and 17220
same,"QR2 stabilization signal, ITDRF (replicates)",QR2 expressed in HEK293T; M -7.1,11995 and 8077 and 17779
same,"QR2 stabilization signal, ITDRF (replicates)",QR2 expressed in HEK293T; M -7.4,9109 and 4692 and 13840
same,"QR2 stabilization signal, ITDRF (replicates)",QR2 expressed in HEK293T; M -7.7,6837 and 3416 and 9444
same,"QR2 stabilization signal, ITDRF (replicates)",QR2 expressed in HEK293T; M -8,2555 and 1788 and 4021
same,"QR2 stabilization signal, ITDRF (replicates)",QR2 expressed in HEK293T; M -9,121 and 492 and 263
same,"cell viability, XTT (replicates)","HEK293 cells; 3h, inhibitor 2e-8 M",99.9 and 101.4 and 100.9 and 104.5
same,"cell viability, XTT (replicates)","HEK293 cells; 3h, inhibitor 2e-7 M",95.8 and 94.0 and 100.4 and 100.6
same,"cell viability, XTT (replicates)","HEK293 cells; 3h, inhibitor 2e-6 M",96.9 and 89.9 and 98.4 and 94.4
same,"cell viability, XTT (replicates)","HEK293 cells; 3h, inhibitor 2e-5 M",97.3 and 87.1 and 95.7 and 85.1
same,"cell viability, XTT (replicates)","HEK293 cells; 24h, inhibitor 2e-8 M",106.1 and 99.4 and 100.6
same,"cell viability, XTT (replicates)","HEK293 cells; 24h, inhibitor 2e-7 M",106.1 and 98.5 and 96.2
same,"cell viability, XTT (replicates)","HEK293 cells; 24h, inhibitor 2e-6 M",103.5 and 93.6 and 93.8
same,"cell viability, XTT (replicates)","HEK293 cells; 24h, inhibitor 2e-5 M",95.3 and 93.6 and 96.9
